How the values were obtained:
Format in all cases: physicochemical
[1] = Evaluation of MY composition solubility in water (Experiment Example 1)
Description: The MY and γ-CD were used in the proportions (mole ratios) presented in Table 1, and […] different powdery MY compositions (Samples 1 to 22) were prepared according to the method of Example 1.
The powdery MY composition (Samples 1 to 22) or a control MY (MY itself) was added to water (20 ml) in a 100-ml Erlenmeyer flask while stirring. The samples were added until they could not be dissolved further, and formed deposits. Each solution was shaken (Bio-Shaker BR-3000LF, 160 rpm, amplitude=40 mm, Taitec Co., Ltd.) at 25° C. for 40 hours, and centrifuged at 9,000 rpm for 10 min to collect the supernatant. The supernatant was appropriately diluted with a 0.1% phosphoric acid aqueous solution, and absorbance (346 nm) was measured.
1) MY (50 mg) was accurately weighed, and dissolved in methanol to make the volume precisely 100 ml. 2) The solution was appropriately diluted with a 0.1% phosphoric acid aqueous solution to prepare MY solutions of 0.0001, 0.0005, 0.001, 0.005, and 0.01 mg/ml concentrations. 3) The absorbance of the standard solution at a wavelength of maximum absorption was measured with a spectrophotometer. 4) A standard curve was created based on the content of MY in the MY solution, and the measured absorbance value.

[2] = Evaluation of water solubility with α- and β-cyclodextrins (Reference Experiment Example)
Description: Evaluation of Water Solubility with α- and β-Cyclodextrins Instead of γ-CD, α-cyclodextrin (α-CD) and β-cyclodextrin (β-CD) (both from Nihon Shokuhin Kako Co., Ltd.) were used to prepare MY inclusions, and the solubility of the compositions in water was evaluated.
Specifically, an MY composition containing 3 moles of α-CD (Reference Sample 1), or an MY composition containing 3 moles of β-CD (Reference Sample 2) per mole of MY were prepared according to the method of Example 1, and the solubility of each composition in water was determined as an MY solubility (mg/ml) according to the method of Experiment Example 1. The solubility (mg/ml) of the MY itself was also determined as a control, and the solubility (fold) was calculated from the relative ratio of the two.

[3] = Evaluation of the solubility of other flavonoids in water (Experiment Example 2)
Description: The solubility (mg/ml) of each composition in water in terms of the flavonoid was then determined according to the method of Experiment Example 1. The solubility (mg/ml) of the flavonoid itself in water was also determined as a control, and the solubility (fold) was calculated from the relative ratio of the two.

[4] = Evaluation of preservation stability, presence or absence of deposits in acid and sugar solutions (Experiment Example 3); parameters: key: +: the presence of deposits; −: the absence of deposits; x: no dissolution in the acid and sugar solution; conditions: 210 days
Description: MY and γ-CD were used in the 1:1 proportion (mole ratio) to prepare a powder composition (sample 1) according to the method of Example 1. […] Each solution was hot-packed in a 100-ml glass vial (93° C.). The drinks so prepared were allowed to cool, and placed under 50° C., room temperature (25±2° C.), and low-temperature (5° C.) conditions for 210 days. The presence or absence of deposits was then checked by visual inspection. […] The drinks so prepared were allowed to cool, and placed under 50° C., room temperature (25±2° C.), and low-temperature (5° C.) conditions for 210 days. The presence or absence of deposits was then observed. In the table, the symbol “+” means the presence of deposits, and “−” the absence of deposits. The symbol “x” means no dissolution in the acid and sugar solution.

## C[C@H]1O[C@@H](Oc2c(-c3cc(O)c(O)c(O)c3)oc3cc(O)cc(O)c3c2=O)[C@@H](O)[C@@H](O)[C@@H]1O [MY, myricitrin]
[1]; relative to solubility of MY itself (non-inclusion) = 1, 25° C., 40 hours
  Solubility (fold): 1 fold
[1]; shaken at 25° C. for 40 hours, MY:γ-CD = 1:X per sample
  Solubility (in terms of myricitrin, mg/ml): 0.12 mg/mL
[2]; relative to MY alone = 1
  Solubility (fold): 1 fold
[2]; water, method of Experiment Example 1, MY:CD = 1:3 mole ratio
  Solubility (in terms of myricitrin, mg/ml): 0.10 mg/mL
[3]; Flavonoid:γ-CD = 1:0 (mole ratio), flavonoid itself, reference
  Solubility (fold) (in terms of flavonoids): 1 fold
[3]; Flavonoid:γ-CD = 1:1 (mole ratio)
  Solubility (fold) (in terms of flavonoids): 157.8 fold
[3]; Flavonoid:γ-CD = 1:3 (mole ratio)
  Solubility (fold) (in terms of flavonoids): 256.2 fold
[3]; Flavonoid:γ-CD = 1:5 (mole ratio)
  Solubility (fold) (in terms of flavonoids): 187.4 fold
[3]; Flavonoid:γ-CD = 1:10 (mole ratio)
  Solubility (fold) (in terms of flavonoids): 49.3 fold
[3]; Flavonoid:γ-CD = 1:15 (mole ratio)
  Solubility (fold) (in terms of flavonoids): 59.9 fold
[3]; Flavonoid:γ-CD = 1:20 (mole ratio)
  Solubility (fold) (in terms of flavonoids): 46.3 fold
[4]; pH 3, 50° C., flavonoid concentration 0.05%
  presence or absence of deposits: +
[4]; pH 3, 50° C., flavonoid concentration 0.10%
  presence or absence of deposits: +
[4]; pH 3, refrigerated (5° C.), flavonoid concentration 0.05%
  presence or absence of deposits: +
[4]; pH 3, refrigerated (5° C.), flavonoid concentration 0.10%
  presence or absence of deposits: +
[4]; pH 3, room temperature, flavonoid concentration 0.05%
  presence or absence of deposits: +
[4]; pH 3, room temperature, flavonoid concentration 0.10%
  presence or absence of deposits: +
[4]; pH 6, 50° C., flavonoid concentration 0.05%
  presence or absence of deposits: −
[4]; pH 6, 50° C., flavonoid concentration 0.10%
  presence or absence of deposits: −
[4]; pH 6, refrigerated (5° C.), flavonoid concentration 0.05%
  presence or absence of deposits: +
[4]; pH 6, refrigerated (5° C.), flavonoid concentration 0.10%
  presence or absence of deposits: +
[4]; pH 6, room temperature, flavonoid concentration 0.05%
  presence or absence of deposits: +
[4]; pH 6, room temperature, flavonoid concentration 0.10%
  presence or absence of deposits: +
[4]; pH 9, 50° C., flavonoid concentration 0.05%
  presence or absence of deposits: −
[4]; pH 9, 50° C., flavonoid concentration 0.10%
  presence or absence of deposits: −
[4]; pH 9, refrigerated (5° C.), flavonoid concentration 0.05%
  presence or absence of deposits: −
[4]; pH 9, refrigerated (5° C.), flavonoid concentration 0.10%
  presence or absence of deposits: −
[4]; pH 9, room temperature, flavonoid concentration 0.05%
  presence or absence of deposits: −
[4]; pH 9, room temperature, flavonoid concentration 0.10%
  presence or absence of deposits: −
